Entries after “also recorded” stand apart in the source; their conditions may differ. Positions of bridges follow the written chain, without caps; N, C: chain ends. Non-standard residues stand in square brackets, D forms with d. Residues, ends and D or L forms follow the SMILES beside them. No end group written: not given here. *: point of attachment. 5FAM = O=C1OC2(c3ccc(O)cc3Oc3cc(O)ccc32)c2ccc(C(=O)*)cc21; DABCYL = 4-(dimethylaminoazo)benzene-4-carboxy; Sta = CC(C)C[C@H](N)[C@@H](O)CC(=O)O; Isovaleryl = CC(C)CC(=O)*
What was measured:
Assay type in all cases: biochemical, A. fumigatus
[1] = biological target: T1, recombinant Asp f2 (Aspergillus fumigatus, UniProt P79017); settings: for effect of protease inhibitors on proteolytic activity of recombinant Asp f2: 50 μM inhibitor, FluHSA2 substrate
T1 construct: region fused to Asp f2 residues 32-310 (codon optimized for expression in E. coli); Trx-SMT3 N-terminal linker (thioredoxin, His6 tags, SMT3) (N, cleaved yes); made in house; host or cells: Escherichia coli
Description: (§1) A novel bead-based assay was developed for detecting Asp f2 proteolytic activity. […] Cyanogen bromide (CNBr)-activated sepharose beads were swelled in ice-cold HCl (1 mM). Beads (1.0 g) were incubated with 3.0 mg of 5D7A1 in Coupling Buffer (NaHCO3, 0.1 M and NaCl, 0.5 M, pH 8.3-8.5) and rotated for two hours at 22° C. or for 16 hours at 4° C. Beads were blocked with 0.1 M ethanolamine, pH 8.0, then washed with buffers of alternating pH (first with Coupling Buffer, pH 8.5, then with a low pH buffer (sodium acetate, 0.1 M, NaCl, 0.5 M, pH 4.0)). These dual washes were repeated four times. Lastly, beads were resuspended in ammonium bicarbonate (100 mM), lyophilized and stored at 4° C.
(§2) FluHSA2 comprises the peptide of SEQ ID NO:5 conjugated to 5-Fam at the alpha-amino group of the threonine at the N-terminus of the peptide and to DABCYL at the epsilon amino group of the lysine side chain at the C-terminus of the peptide. Upon excitation, the DABCYL suppresses the fluorescence emission of the 5-Fam labeled peptides when the peptides are not cleaved and the fluorescent label and DABCYL remain close together. However, when the peptide is cleaved by Asp f2, the fluorescent label and DABCYL are separated and the fluorescent label emits light energy upon excitation. For each replicate (including negative controls), 100 μL of the antibody coupled bead suspension was transferred into 0.5 mL reaction buffer (FluHSA2 (FIG. 4-5; SEQ ID NO: 5), […] sodium phosphate, 25 mM, NaCl, 100 mM, pH 7.2. Tubes were incubated in the dark for two hours at 37° C. or for 16 hours at 22° C. on a rotary shaker at 250 rpm. Fluorescence was measured at Excitation (Ex) 485 nm/Emission (Em) 535 nm in a black 96-well micro titer plate.
The fusion protein comprised an N-terminal linker (Trx-SMT3 N-terminal linker) region fused to Asp f2 residues 32-310 (codon optimized for expression in E. coli; FIG. 14) via a Ubiquitin-like-specific protease 1 (ULP1) cleavage site located between SMT3 and Asp f2. The Trx-SMT3 N-terminal linker contained the following from N- to C-terminus: thioredoxin (Trx)-glycine-serine-linker-His6-tag-linkers-another His6-tag-SMT3. Trx was added to improve solubility of the construct and a yeast SUMO (Smt3) was added to help enhance expression and promote solubility of Asp f2. Following purification using a His6-tag specific nickel-NTA column, Asp f2 was activated by cleaving the Trx-SMT3 N-terminal linker off using UPL1.
(§3) Diethylpyrocarbonate (DEPC) derivatization of histidines results in the chemical modification of histidines in proteins and is used to study the importance of histidyl residues in enzymes. Using the materials and methods described in Example 1, anti-Asp f2 (5D7A1)-bound beads were incubated with native or recombinant Asp f2 in the presence or absence of DEPC (30 μM) and incubated for one hour at 22° C. prior to reaction with FluHSA2. Samples were then incubated with 10 μM of FluHSA2 for 16 hours at 22° C. and fluorescence was measured as described above. Cleavage of FluHSA2 was detected in the presence or absence of DEPC to test the proteolytic activity of native and recombinant Asp f2.
Anti-Asp f2 (5D7A1)-bound beads were incubated with native or recombinant Asp f2 in the presence or absence of 0.5 mM zinc chloride or 50 μM of various inhibitors. Samples were incubated with FluHSA2 and fluorescence was measured as described above.

[2] = biological target: T2, native Asp f2 (Aspergillus fumigatus, UniProt P79017); settings: for effect of protease inhibitors on proteolytic activity of native Asp f2: 50 μM inhibitor, FluHSA2 substrate
T2 construct: beads were incubated with native or recombinant Asp f2; endogenous in cells; host or cells: Aspergillus fumigatus (preparation of the native protein not described for this assay)
Description: as §1, §2, §3
Anti-Asp f2 (5D7A1)-bound beads were incubated with native or recombinant Asp f2 in the presence or absence of 0.5 mM zinc chloride or 50 μM of various inhibitors. Samples were incubated with FluHSA2 and fluorescence was measured as described above. […] Various Asp f2 histidine residues, including those located in the ^186HRLYH motif, were mutated to alanine (FIG. 12; H186A and H190A are located in the HRLYH motif), and mutant or wild-type Asp f2 was incubated with anti-Asp f2 (5D7A1)-bound beads as described above, followed by incubation with FluHSA2.

[3] = biological target: T2, native Asp f2; experiment: Cleavage of fluorogenic substrates by bead-bound native Asp f2
Description: Cleavage specificity of the novel FluHSA peptide was tested using Asp f2 and another Aspergillus protein, Asp f3. CNBr-activated sepharose beads were prepared as described in Example 1 and incubated with either the anti-Asp f2 monoclonal antibody 5D7A1 or an anti-Asp f3 rabbit polyclonal antibody. Anti-Asp f2-immobilized beads were incubated with native Asp f2 and anti-Asp f3-immobilized beads were incubated with native Asp f3. Samples were incubated with FluHSA2 (10 μM) for 16 hours at 22° C. Fluorescence was measured at Ex 485 nm/Em 535 nm in a black 96-well micro titer plate as described above.
The cleavage products of FluHSA2 after reaction with native Asp f2 were investigated by mass spectrometric analysis (MALDI spectra) (FIG. 5). Cleavage by Asp f2 occurred in the C-terminal linear tail section of the peptide resulting in at least 5 cleavage products (FIG. 5).
Peptides other than FluHSA2 were tested for cleavage by Asp f2.

[4] = DEPC 30 μM, one hour at 22° C. before FluHSA2 10 μM, 16 hours at 22° C.

T1 sequence (P79017 32-310): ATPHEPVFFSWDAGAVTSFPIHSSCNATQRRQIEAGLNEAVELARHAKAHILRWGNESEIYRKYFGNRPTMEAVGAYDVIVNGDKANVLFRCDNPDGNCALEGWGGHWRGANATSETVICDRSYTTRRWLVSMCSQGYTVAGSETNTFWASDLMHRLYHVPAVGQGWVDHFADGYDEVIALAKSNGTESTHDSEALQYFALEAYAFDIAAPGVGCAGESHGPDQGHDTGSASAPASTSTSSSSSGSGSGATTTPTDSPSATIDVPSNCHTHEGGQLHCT
T2 sequence (P79017 32-310): as above

| Compound | effect of protease inhibitors on proteolytic activity of recombinant Asp f2 [1] | effect of protease inhibitors on proteolytic activity of native Asp f2 [2] | also measured |
| --- | --- | --- | --- |
| c1cnc2c(c1)ccc1cccnc12 [1-10-phenanthroline] | suppressed | suppressed | – |
| CCOC(=O)OC(=O)OCC [DEPC, Diethylpyrocarbonate] | – | – | proteolytic activity of recombinant Asp f2 (cleavage of FluHSA2) in the presence of DEPC [1, 4]: inhibited; also recorded: inactive in the presence of DEPC; proteolytic activity of native Asp f2 (cleavage of FluHSA2) in the presence of DEPC [2, 4]: inhibited; also recorded: inactive in the presence of DEPC |
| O=C(O)CN(CCN(CC(=O)O)CC(=O)O)CC(=O)O [EDTA, ethylenediaminetetraacetic acid] | suppressed | suppressed | – |
| NC(=O)CI [IAA, iodoacetamide] | did not inhibit | did not inhibit | – |
| O=S(=O)(F)Cc1ccccc1 [PMSF, phenylmethanesulfonylfluoride] | did not inhibit | did not inhibit | – |
| c1ccc(CN(CCN(Cc2ccccn2)Cc2ccccn2)Cc2ccccn2)nc1 [TPEN, N,N,N′,N′-tetrakis (2-pyridylmethyl) ethylenediamine] | suppressed | suppressed | – |
| CC(C)CC(=O)N[C@H](C(=O)N[C@H](C(=O)N[C@@H](CC(C)C)[C@@H](O)CC(=O)N[C@@H](C)C(=O)N[C@@H](CC(C)C)[C@@H](O)CC(=O)O)C(C)C)C(C)C [pepstatin A] (Isovaleryl-VV[Sta]A[Sta]-OH) | did not inhibit | did not inhibit | – |
| [5-Fam]-TKCATESAVNRRPCFSALK-[DABCYL] (5FAM-TKCATESAVNRRPCFSALK(DABCYL); disulfide 3-14 (inferred)) [FluHSA2] | – | – | number of cleavage products after reaction with native Asp f2 (MALDI) [3]: at least 5; specificity of cleavage by Asp f2 compared with Asp f3 ([3]; FluHSA2 10 μM, 16 hours at 22° C.): high specificity for cleavage by Asp f2; number of cleavage sites on reaction with native Asp f2 (MALDI) ([3]; sites near the C-terminus): four |
| aprotinin | did not inhibit | did not inhibit | – |
| collagen | – | – | degradation of fluorogenic protein substrate by native Asp f2 ([3]; 15 μg/mL, Asp f2 enriched on 5D7A1 beads): capable of degrading |
| soybean trypsin inhibitor [SBTI] | did not inhibit | did not inhibit | – |

From patent US11726087B2, “Methods, compositions, and kits for detection of aspergillosis” (priority 2013, dated 2023)
